Experimental data reported in ChEMBL document CHEMBL1135353, “Synthesis and initial SAR studies of 3,6-disubstituted pyrazolo[1,5-a]pyrimidines: a new class of KDR kinase inhibitors” (Bioorg Med Chem Lett, 2002).

target: VEGF-receptor 2 and PDGF-receptor beta (KDR and PDGFR beta) (Homo sapiens) (UniProt P09619+P35968); assay: Selectivity for Vascular endothelial growth factor receptor 2 over Platelet-derived growth factor receptor beta; format: protein assay; conditions: not given
Sequence (P09619 whole entry, looked up): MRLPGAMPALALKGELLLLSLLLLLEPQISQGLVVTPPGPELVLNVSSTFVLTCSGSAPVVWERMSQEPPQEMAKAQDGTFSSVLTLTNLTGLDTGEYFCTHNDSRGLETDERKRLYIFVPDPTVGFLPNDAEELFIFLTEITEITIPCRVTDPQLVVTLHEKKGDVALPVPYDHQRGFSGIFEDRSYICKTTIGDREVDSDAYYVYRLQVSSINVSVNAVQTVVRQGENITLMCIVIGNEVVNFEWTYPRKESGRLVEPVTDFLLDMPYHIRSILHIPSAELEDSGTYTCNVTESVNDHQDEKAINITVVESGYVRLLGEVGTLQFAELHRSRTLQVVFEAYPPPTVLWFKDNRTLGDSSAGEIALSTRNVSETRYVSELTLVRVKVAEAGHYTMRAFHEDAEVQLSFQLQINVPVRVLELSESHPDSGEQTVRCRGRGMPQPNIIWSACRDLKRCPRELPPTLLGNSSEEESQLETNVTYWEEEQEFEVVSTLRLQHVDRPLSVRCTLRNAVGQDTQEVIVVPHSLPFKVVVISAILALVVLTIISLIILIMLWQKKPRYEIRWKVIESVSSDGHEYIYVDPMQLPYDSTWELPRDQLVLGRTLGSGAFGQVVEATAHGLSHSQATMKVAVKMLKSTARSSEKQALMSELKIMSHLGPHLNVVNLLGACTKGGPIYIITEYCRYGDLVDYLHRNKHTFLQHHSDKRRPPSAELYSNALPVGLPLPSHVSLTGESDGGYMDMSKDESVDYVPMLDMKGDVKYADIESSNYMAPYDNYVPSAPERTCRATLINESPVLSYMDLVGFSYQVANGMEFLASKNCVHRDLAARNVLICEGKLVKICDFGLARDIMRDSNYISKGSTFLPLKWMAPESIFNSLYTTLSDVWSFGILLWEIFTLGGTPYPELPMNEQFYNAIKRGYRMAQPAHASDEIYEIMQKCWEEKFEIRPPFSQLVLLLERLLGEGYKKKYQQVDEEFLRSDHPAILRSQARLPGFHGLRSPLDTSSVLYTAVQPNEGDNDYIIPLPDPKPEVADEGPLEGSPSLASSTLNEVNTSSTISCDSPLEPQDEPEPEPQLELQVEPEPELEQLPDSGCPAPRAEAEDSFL
Sequence (P35968 whole entry, looked up): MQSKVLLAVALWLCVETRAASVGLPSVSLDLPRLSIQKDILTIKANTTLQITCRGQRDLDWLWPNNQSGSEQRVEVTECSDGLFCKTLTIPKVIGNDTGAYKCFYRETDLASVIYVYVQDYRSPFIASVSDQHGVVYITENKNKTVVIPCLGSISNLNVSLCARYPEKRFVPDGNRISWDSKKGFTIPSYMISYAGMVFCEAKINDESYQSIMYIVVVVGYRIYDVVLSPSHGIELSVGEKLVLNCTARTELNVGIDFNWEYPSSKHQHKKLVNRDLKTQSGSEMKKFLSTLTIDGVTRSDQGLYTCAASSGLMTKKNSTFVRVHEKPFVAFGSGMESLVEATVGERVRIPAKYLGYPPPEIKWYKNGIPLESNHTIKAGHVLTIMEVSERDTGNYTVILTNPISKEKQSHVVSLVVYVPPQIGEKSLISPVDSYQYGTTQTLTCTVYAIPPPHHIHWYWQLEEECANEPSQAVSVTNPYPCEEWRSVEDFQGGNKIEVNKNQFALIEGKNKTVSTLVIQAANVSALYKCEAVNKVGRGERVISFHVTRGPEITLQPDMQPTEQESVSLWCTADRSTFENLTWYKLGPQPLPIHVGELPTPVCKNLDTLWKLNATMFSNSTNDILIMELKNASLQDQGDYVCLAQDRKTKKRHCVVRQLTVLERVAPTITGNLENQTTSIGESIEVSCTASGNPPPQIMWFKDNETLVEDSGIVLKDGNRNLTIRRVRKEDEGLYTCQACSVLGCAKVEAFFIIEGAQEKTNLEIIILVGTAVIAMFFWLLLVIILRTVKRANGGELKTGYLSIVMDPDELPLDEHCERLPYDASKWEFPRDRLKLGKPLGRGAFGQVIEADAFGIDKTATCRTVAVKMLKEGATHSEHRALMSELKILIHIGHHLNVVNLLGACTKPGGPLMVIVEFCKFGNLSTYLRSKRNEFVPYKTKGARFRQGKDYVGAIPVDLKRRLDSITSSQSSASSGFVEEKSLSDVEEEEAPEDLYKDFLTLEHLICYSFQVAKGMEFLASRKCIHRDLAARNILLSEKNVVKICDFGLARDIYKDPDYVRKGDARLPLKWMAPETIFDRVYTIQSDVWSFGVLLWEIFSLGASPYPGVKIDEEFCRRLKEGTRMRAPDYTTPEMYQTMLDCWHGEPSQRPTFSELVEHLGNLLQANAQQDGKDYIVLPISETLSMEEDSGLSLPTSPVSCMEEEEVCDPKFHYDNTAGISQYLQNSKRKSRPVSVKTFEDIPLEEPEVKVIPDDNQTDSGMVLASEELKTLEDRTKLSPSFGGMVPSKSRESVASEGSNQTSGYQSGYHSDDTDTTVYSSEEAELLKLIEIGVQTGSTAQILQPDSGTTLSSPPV

Question: For `COc1ccc(-c2cnc3c(-c4ccncc4)cnn3c2)cc1`, which Ratio is on record?
Answer: Its Ratio is 0.5.

target: VEGF-receptor 2 and tyrosine-protein kinase SRC (Homo sapiens) (UniProt P12931+P35968); assay: Selectivity for Vascular endothelial growth factor receptor 2 over c-Src kinase; format: protein assay; conditions: not given
Sequence (P12931 whole entry, looked up): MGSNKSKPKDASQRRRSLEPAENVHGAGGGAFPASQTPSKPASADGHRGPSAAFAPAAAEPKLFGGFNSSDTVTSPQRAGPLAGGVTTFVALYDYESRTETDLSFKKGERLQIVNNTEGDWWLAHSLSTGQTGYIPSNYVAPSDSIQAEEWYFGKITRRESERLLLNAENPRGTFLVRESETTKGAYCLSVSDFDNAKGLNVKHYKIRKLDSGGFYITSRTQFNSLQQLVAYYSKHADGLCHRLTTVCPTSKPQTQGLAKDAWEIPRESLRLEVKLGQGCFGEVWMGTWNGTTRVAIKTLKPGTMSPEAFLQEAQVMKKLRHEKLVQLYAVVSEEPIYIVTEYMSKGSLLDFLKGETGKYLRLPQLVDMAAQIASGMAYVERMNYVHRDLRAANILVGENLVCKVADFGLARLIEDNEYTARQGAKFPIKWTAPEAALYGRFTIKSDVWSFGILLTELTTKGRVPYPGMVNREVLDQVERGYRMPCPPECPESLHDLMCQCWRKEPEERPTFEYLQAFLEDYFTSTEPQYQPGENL
Sequence (P35968 whole entry, looked up): as the sequence (P35968 whole entry, looked up) above

Question: With `COc1ccc(-c2cnc3c(-c4ccncc4)cnn3c2)cc1` as the compound, how does the Ratio read?
Answer: The Ratio was 27.

target: Vascular endothelial growth factor receptor 2 (Homo sapiens, UniProt P35968); assay: Inhibitory activity at VEGF-2 receptor.; conditions: not given
Sequence (P35968 whole entry): as the sequence (P35968 whole entry, looked up) above

Question: For `Clc1cccc(-c2cnn3cc(-c4ccncc4)cnc23)c1`, which IC50 is on record?
Answer: The IC50 was 350 nM.

Question: With `COc1cccc(-c2cnn3cc(-c4ccncc4)cnc23)c1` as the compound, how does the IC50 read?
Answer: Its IC50 is 510 nM.

Question: Which IC50 does the source give for `c1ccc(-c2cnn3cc(-c4ccncc4)cnc23)cc1` here?
Answer: Its IC50 is 71 nM.

Question: With `Fc1ccc(-c2cnn3cc(-c4ccncc4)cnc23)cc1Cl` as the compound, how does the IC50 read?
Answer: Its IC50 is 265 nM.

Question: For `C1=C(c2cnn3cc(-c4ccncc4)cnc23)CCCC1`, which IC50 is on record?
Answer: The IC50 was 41 nM.

Question: Which IC50 does the source give for `Cc1ccc(-c2cnc3c(-c4ccncc4)cnn3c2)cc1` here?
Answer: Its IC50 is 62 nM.

Question: Which IC50 does the source give for `C1=C(c2cnn3cc(-c4ccncc4)cnc23)CCC1` here?
Answer: The IC50 was 28 nM.

Question: For `COc1ccc(-c2cnc3c(-c4ccccn4)cnn3c2)cc1`, which IC50 is on record?
Answer: The IC50 was 1000 nM.

Question: Which IC50 does the source give for `COc1ccc(-c2cnc3c(-c4cccnc4)cnn3c2)cc1` here?
Answer: The IC50 was 41 nM.

Question: With `c1cc(-c2cnn3cc(C4CCCCC4)cnc23)cs1` as the compound, how does the IC50 read?
Answer: The IC50 was 280 nM.

Question: With `Clc1ccc(-c2cnc3c(-c4ccncc4)cnn3c2)cc1` as the compound, how does the IC50 read?
Answer: Its IC50 is 113 nM.

Question: Which IC50 does the source give for `Fc1ccc(-c2cnn3cc(-c4ccncc4)cnc23)cc1` here?
Answer: Its IC50 is 63 nM.

Question: For `c1ccc(-c2cnn3cc(-c4ccccn4)cnc23)cc1`, which IC50 is on record?
Answer: Its IC50 is 88 nM.

target: Vascular endothelial growth factor receptor 2 and 3 (KDR and Flt-4) (Homo sapiens) (UniProt P35916+P35968); assay: Selectivity for VEGF-receptor 2 (KDR) over Vascular endothelial growth factor receptor 3 (FLT4); format: protein assay; conditions: not given
Sequence (P35916 whole entry, looked up): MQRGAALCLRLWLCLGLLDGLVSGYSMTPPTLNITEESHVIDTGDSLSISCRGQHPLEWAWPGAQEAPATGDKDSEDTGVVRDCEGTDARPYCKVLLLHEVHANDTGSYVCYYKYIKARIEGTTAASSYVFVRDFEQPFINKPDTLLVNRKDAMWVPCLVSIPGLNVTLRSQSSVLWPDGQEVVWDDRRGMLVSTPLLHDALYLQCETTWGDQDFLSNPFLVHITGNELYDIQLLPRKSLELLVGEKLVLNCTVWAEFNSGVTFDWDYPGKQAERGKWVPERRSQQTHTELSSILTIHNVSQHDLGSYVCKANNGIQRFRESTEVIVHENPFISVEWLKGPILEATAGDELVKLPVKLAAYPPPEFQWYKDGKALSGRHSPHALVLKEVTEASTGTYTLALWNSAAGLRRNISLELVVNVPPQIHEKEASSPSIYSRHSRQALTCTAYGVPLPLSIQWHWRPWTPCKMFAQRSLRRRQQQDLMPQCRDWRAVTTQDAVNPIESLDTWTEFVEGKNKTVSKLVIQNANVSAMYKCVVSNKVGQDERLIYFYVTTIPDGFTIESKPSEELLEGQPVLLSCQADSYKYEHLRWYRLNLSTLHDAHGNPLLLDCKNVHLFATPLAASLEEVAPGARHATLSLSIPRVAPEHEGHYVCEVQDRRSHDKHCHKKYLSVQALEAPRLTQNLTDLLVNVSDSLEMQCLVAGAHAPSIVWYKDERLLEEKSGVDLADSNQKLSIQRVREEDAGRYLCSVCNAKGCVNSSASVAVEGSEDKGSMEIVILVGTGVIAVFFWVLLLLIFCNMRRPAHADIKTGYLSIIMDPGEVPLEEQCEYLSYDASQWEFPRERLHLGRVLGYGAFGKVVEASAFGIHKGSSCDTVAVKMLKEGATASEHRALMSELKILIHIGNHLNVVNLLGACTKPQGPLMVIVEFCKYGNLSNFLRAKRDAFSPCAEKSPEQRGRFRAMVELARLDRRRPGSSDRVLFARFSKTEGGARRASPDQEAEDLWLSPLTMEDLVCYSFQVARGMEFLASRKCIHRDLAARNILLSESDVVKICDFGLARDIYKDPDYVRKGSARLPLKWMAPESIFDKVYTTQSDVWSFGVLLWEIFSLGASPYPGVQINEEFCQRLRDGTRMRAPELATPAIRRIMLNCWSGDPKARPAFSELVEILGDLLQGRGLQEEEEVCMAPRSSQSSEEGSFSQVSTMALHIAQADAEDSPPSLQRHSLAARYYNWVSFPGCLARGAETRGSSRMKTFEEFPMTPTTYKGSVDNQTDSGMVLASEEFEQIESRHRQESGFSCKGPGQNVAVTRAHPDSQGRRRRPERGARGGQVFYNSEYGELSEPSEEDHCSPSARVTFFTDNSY
Sequence (P35968 whole entry, looked up): as the sequence (P35968 whole entry, looked up) above

Question: For `COc1ccc(-c2cnc3c(-c4ccncc4)cnn3c2)cc1`, which Ratio is on record?
Answer: The Ratio was 2.2.

system: not listed separately; assay: Partition coefficient (logP); format: physicochemical; conditions: octanol/water

Question: For `c1cc(-c2cnc3c(-c4ccncc4)cnn3c2)ccn1`, which logP is on record?
Answer: The logP was 2.5.

Question: With `COc1ccc(-c2cnc3c(-c4ccsc4)cnn3c2)cc1` as the compound, how does the logP read?
Answer: The logP was > 4.

Question: For `COc1ccc(-c2cnc3c(-c4ccncc4)cnn3c2)cc1`, which logP is on record?
Answer: The logP was 4.

target: Vascular endothelial growth factor receptor (Homo sapiens, UniProt P17948+P35916+P35968); conditions: endothelial cell
Description: Inhibition of VEGF-stimulated mitogenesis in human umbilical vein endothelial cells

Question: Which IC50 does the source give for `c1cc(-c2cnc3c(-c4ccsc4)cnn3c2)ccn1` here?
Answer: Its IC50 is 127 nM.
